# Literature values, collected in patent US20120101124A1, “1,2,4-OXADIAZOL DERIVATIVES, THEIR PHARMACEUTICAL COMPOSITIONS AND THEIR USE AS SPHINGOSINE 1-PHOSPHATE 1 RECEPTOR AGONISTS” (GLAXO GROUP LIMITED, priority 2009, published 2012).
# Assays:
# [1] = system: circulating lymphocytes; settings: animals and man
# [2] = clinical studies
compound,measurement,setting,value
CCCCCCCCc1ccc(CCC(N)(CO)CO)cc1 [FTY720],effect on circulating lymphocytes,[1],reduce circulating lymphocytes in animals and man
same,bradycardia on treatment,[2],bradycardia in the first 24 hours of treatment
